Data on four molecules can be found in PMC5715147, “Albumin/vaccine nanocomplexes that assemble in vivo for combination cancer immunotherapy” (Nature Communications, 2017).

The conditions of series [1]: rhesus monkey, in vivo; cited from earlier work. From the text: Here we took a clinically oriented perspective to develop AlbiVax by first repurposing a clinically practiced EB that binds to albumin at binding site I[33], and then conjugating molecular vaccines with an EB derivative. The resulting albumin/AlbiVax nanocomplexes that assemble in vivo were efficiently delivered to LNs and induced potent and durable anti-cancer immunity. EB and derivatives have been developed for preclinical and clinical LN identification[34]–[39]. They have excellent clinical safety profiles[36],[39], and rhesus monkeys survived 25 mg kg^−1 systemically injected EB[40], a dos ... || Safe and robust T cell vaccines would hold great promise for combination cancer immunotherapy. Locally administered vaccines must provide efficient delivery to LNs for effective antitumor immunomodulation. Nanovaccines are a promising approach for efficient vaccine delivery to LNs, and quite a few have been developed preclinically, yet the clinical translation of these nanoformulas has been hindered by limitations in their safety, suitability for reproducible large-scale manufacturing, and in vivo integrity. We chose albumin, one of the most successful carriers of nanomedicines in the clinic, ...

A short description of series [2]: PET quantification of vaccine delivery to draining LNs after s.c. injection. The format is in vivo, FVB mice. To be noted: 64Cu-labeled, s.c. at tail base. As for the experimental part: AlbiVax was radiolabeled with ^64Cu for PET. To label ^64Cu via chelation, a NOTA-functionalized MEB (NMEB) was synthesized and conjugated with vaccines. […] The reaction was shaken for 0.5 h at 37 °C. Thereafter, the radiochemical purity was determined using iTLC plates (Fisher Scientific), developed in 0.1 M citric acid (pH 5).
Female FVB mice (6–8 weeks) were used in all PET imaging studies in naive mice. C57BL/6 mice (6–8 weeks) were used in PET imaging of tumor-bearing mice. Mice were anesthetized using isoflurane/O^2 (2% v v^−1) before injection. Anesthetized mice were injected s.c. at the base of tail with ^64Cu-labeled vaccines (4.44−5.55 MBq/120–150 μCi each mouse) in PBS (100 μL). At indicated time points post injection, mice were scanned on an Inveon DPET scanner (Siemens Medical Solutions, Malvern, PA). PET images were reconstructed without correction for attenuation or scattering using a three-dimensional ordered subsets expectation maximization algorithm. ASI Pro VM^TM software was used for image analysis. Regions of interest (ROI) were drawn on LNs to calculate the %ID/g.

A short description of series [3]: Biodistribution in resected organs by γ counting. Particulars: mouse, in vivo, sc. Details: species or system FVB mice. On the procedure:
The above mice were killed at specified time points. Organs and blood were collected and wet weighed. The collected organs and blood, together with a series of standard solutions, were measured for ^64Cu radioactivity on a gamma counter (Wallac Wizard 1480, PerkinElmer). The radioactivity of organs and blood was converted to calculate the percentages of the injected dose (%ID) in organs of interest and the percentages of the injected dose per gram of tissue (%ID/g).

The conditions of series [4]: human, in vivo; cited from earlier work.

Consider `Cc1cc(-c2ccc(/N=N/c3ccc4c(S(=O)(=O)O)cc(S(=O)(=O)O)c(N)c4c3O)c(C)c2)ccc1/N=N/c1ccc2c(S(=O)(=O)O)cc(S(=O)(=O)O)c(N)c2c1O` [EB, Evans blue], for which the “systemically injected dose survived” value in series [1] was 25 mg/kg.

With `CC(C)C[C@H](NC(=O)[C@H](Cc1c[nH]c2ccccc12)NC(=O)[C@@H](NC(=O)[C@H](Cc1ccccc1)NC(=O)[C@H](Cc1ccccc1)NC(=O)[C@H](CC(=O)O)NC(=O)[C@H](Cc1ccc(O)cc1)NC(=O)[C@@H](NC(=O)[C@H](CO)NC(=O)[C@@H](N)CS)C(C)C)C(C)C)C(=O)O` [Trp2], in series [2] (PET), the “LN delivery (in words)” value was “no detectable”.

Take “CpG: CpG1826 (TCCATGACGTTCCTGACGTT), phosphorothioate oligodeoxynucleotide, TLR9 agonist”: in series [2] (4.4–5.5 Mbq, decay-corrected PET over 3 days, n = 4–8), the “injection dose (%ID) delivered to inguinal (IN) and axillary (AX) LNs” value is below 0.3 %ID. In addition, in series [3], the “%ID/g in IN LNs on day 5” value is 2.5 ± 1.3 %ID/g and the “percent injection dose per gram of tissue in IN LNs on day 3” value is 8.3 ± 4.7 %ID/g.

As to albumin, in series [4], the half-life result was “over 20 days”.
